Series [1] deals with mTORC1 at Ser2448. As to conditions: cited from earlier work.
Series [2] deals with ABCB1/ABCG2. As to conditions: cited from earlier work.
The conditions of series [3]: in vivo; cited from earlier work.
Series [4] deals with CYP3A4. As to conditions: role: substrate; cited from earlier work.
In series [5] the test system is HSA. As to conditions: cited from earlier work.
Series [6] deals with human plasma proteins. As to conditions: cited from earlier work.
Series [7] relates to p4EBP1. Put plainly: Western blot analysis of p4EBP1 in MCF7 cells. It is filed as cell-based. As to conditions: single agent, FIG. 3. The protocol: (§1) A series of single-agent treatments of fulvestrant or nab-sirolimus and combination treatments of both fulvestrant and nab-sirolimus were separately applied to aliquots of hormone receptor positive breast cancer cell lines (either MCF7 or MDA-MB-361). The series including varying concentration of nab-sirolimus (20 nM or 80 nM) and fulvestrant (0.98 nM to 1000 nM). Following the application of the individual treatments, the cell aliquots were incubated for 5 days. Subsequently, the antiproliferative and cytotoxic effects of single agent and combination treatments were assessed using an automated trypan blue exclusion assay.
Western blot analysis was performed to assess p4EBP1 in MCF7 cells. […] Thus, addition of nab-sirolimus to endocrine-based therapies, such as fulvestrant, may overcome mechanisms of resistance.

Series [8] concerns pAKT. Put plainly: Western blot analysis of pAKT in MCF7 cells. It is filed as cell-based. As to conditions: fulvestrant combined with nab-sirolimus, FIG. 3, effect on nab-sirolimus-induced increase. How it is done: as §1
Western blot analysis was performed to assess pAKT in MCF7 cells. […] Thus, addition of fulvestrant, to mTOR targeting agents, such as nab-sirolimus may overcome mechanisms of resistance.

Take `COc1ccc(-c2ccc3c(N4CCOCC4)nc(N4C[C@@H](C)O[C@@H](C)C4)nc3n2)cc1CO` [KU-0063794]: the “inhibition of phosphorylation of mTORC1 at Ser2448” value in series [1] was “inhibits the phosphorylation of mTORC1 at Ser2448 in a dose-dependent and time-dependent manner”.

For `COc1ccc(COc2cc3oc(=O)c4cc(C(C)O)ccc4c3cc2OC)cc1` (stereo not drawn) [Palomid 529], the “affinity for ABCB1/ABCG2” value in series [2] was “lacks affinity for ABCB1/ABCG2”. Further, the brain penetration entry in series [3] is “good brain penetration”.

On to `CO[C@H]1C[C@@H]2CC[C@@H](C)[C@@](O)(O2)C(=O)C(=O)N2CCCC[C@H]2C(=O)O[C@H]([C@H](C)C[C@@H]2CC[C@@H](O)[C@H](OC)C2)CC(=O)[C@H](C)/C=C(\C)[C@@H](O)[C@@H](OC)C(=O)[C@H](C)C[C@H](C)/C=C/C=C/C=C/1C` [Sirolimus, sirolimus], for which the metabolism result in series [4] was “metabolized primarily by CYP3A4”. Besides, the “binding to HSA” value in series [5] is “shown to bind HSA”.

As to `CC(=O)O[C@@]12CO[C@@H]1C[C@H](O)[C@@]1(C)C(=O)[C@H](O)C3=C(C)[C@@H](OC(=O)[C@H](O)[C@@H](NC(=O)OC(C)(C)C)c4ccccc4)C[C@@](O)([C@@H](OC(=O)c4ccccc4)[C@H]21)C3(C)C` [docetaxel], the “binding to human plasma proteins” value in series [6] was “shown to bind to human plasma proteins”.

Regarding `C[C@]12CC[C@@H]3c4ccc(O)cc4C[C@@H](CCCCCCCCC[S+]([O-])CCCC(F)(F)C(F)(F)F)[C@H]3[C@@H]1CC[C@@H]2O` (stereo partly drawn) [fulvestrant], in series [7], the p4EBP1 level result was “increased p4EBP1 in response to fulvestrant in a dose-dependent manner”. Also, in series [8], the “pAKT level in combination” value is “reversed by combination with fulvestrant in a dose-dependent manner”.

For the molecule `CC(C)c1cccc(C(C)C)c1O` [propofol], the “binding to HSA” value in series [5] is “shown to bind HSA”.

These data come from US20260315437A1, “COMBINATION OF NAB-SIROLIMUS AND AN ESTROGEN SUPPRESOR FOR USE IN THE TREATMENT OF HORMONE-DEPENDENT CANCERS” (AADI Bioscience, Inc., priority 2023, published 2026).
